The text below walks through data of patent US6600047B2, “Process for making amlodipine maleate” (Synthon BV, priority 2001, dated 2003).

Turning to `CCOC(=O)C1=C(COCCNC(CC(=O)O)C(=O)O)NC(C)=C(C(=O)OC)C1c1ccccc1Cl` (stereo not shown) [formula (1)], the melting point (commonly the temperature of the solid-liquid transition) is 178 to 183 °C (dec.).
